The target of test [1] is T1, RSK1(Kin.Dom.2-C-terminal) (Homo sapiens, UniProt Q15418).
T1 construct: RSK1(Kin.Dom.2-C-terminal); purchased DiscoveRx (Fremont, CA)
As to the kind of experiment: KinomeScan. As to conditions: read-out: % Control. Type of test: binding.

For another test, the target named is T2, SNRK (Homo sapiens, UniProt Q9NRH2).
T2 construct: purchased DiscoveRx (Fremont, CA)
As to the kind of experiment: KinomeScan. The class given is binding. The settings on record: read-out: % Control.

The target in a further test is T3, ULK1 (Homo sapiens, UniProt O75385).
T3 construct: purchased DiscoveRx
The test is described as follows: KinomeScan. Type of test: binding. As to conditions: read-out: % Control.

The target in the next test is T4, FLT3(R834Q) (Homo sapiens, UniProt P36888, R834Q).
T4 construct: purchased DiscoveRx (Fremont, CA)
The test is described as follows: KinomeScan. The class given is binding. As to conditions: read-out: % Control.

A further test deals with T5, LIMK1 (Homo sapiens, UniProt P53667).
T5 construct: purchased DiscoveRx
The test is described as follows: KinomeScan. Type of test: binding. As to conditions: read-out: % Control.

The target in test [2] is T6, ABL1(F317L)-phosphorylated (Homo sapiens, UniProt P00519, F317L).
T6 construct: purchased DiscoveRx
As to the kind of experiment: KinomeScan. Type of test: binding. The settings on record: read-out: % Control.

The next test addresses CSNK1E (Homo sapiens, UniProt P49674). The test is described as follows: KinomeScan. The settings on record: read-out: % Control. Type of test: binding.
For the next test, the target named is T7, CAMK2A (Homo sapiens, UniProt Q9UQM7).
T7 construct: purchased DiscoveRx (KinomeScan service)
The test is described as follows: KinomeScan. The class given is binding. The settings on record: read-out: % Control.

The target in a further test is T8, DYRK1A (Homo sapiens, UniProt Q13627).
T8 construct: purchased DiscoveRx (Fremont, CA), KinomeScan service
As to the kind of experiment: KinomeScan. The class given is binding. As to conditions: read-out: % Control.

The target of the next test is T9, CXCR4 (Homo sapiens, UniProt P61073).
T9 construct: host or cells: Chem-1 cells with Gα15
The test is described as follows: GPCR Profiler. Type of test: cell-based.

The next test has as its target T10, CysLT2 (Homo sapiens, UniProt Q9NS75).
T10 construct: host or cells: Chem-1 cells with Gα15
The test is described as follows: GPCR Profiler. The class given is cell-based.

Another test deals with T11, TBK1 (Homo sapiens, UniProt Q9UHD2).
T11 construct: purchased DiscoveRx (Fremont, CA)
The test is described as follows: KinomeScan. Type of test: binding. As to conditions: read-out: % Control.

The target of another test is T12, GPR4 (Homo sapiens, UniProt P46093).
T12 construct: expressed in transfected cells
As to the kind of experiment: SRE-luciferase assay, GPR4-transfected HEK293 cells. The class given is cell-based. The settings on record: OGM2 at 1, 10, or 100 μM. On the procedure:
12-well plates of cells were transfected with 1 μg DNA using Lipofectamine 3000 with sre:luciferase and either the vector backbone, GFP, GPR68, GPR68-GFP, GPR4, or 336X-GFP. After 3 days, these cells were then lysed, and cell extracts were subjected to Steady-Glo luciferase assay (Promega™) according to the manufacturer's instructions. The results were normalized to cell titer, as determined using Cell Titer-Glo luminescence assay (Promega™). For some procedure, the cells were treated in serum-free medium, and were lysed on the third day.
Because GPR4, the paralog with highest homology with GPR68, was not covered in the initial GPCR profiling, whether OGM2 could inhibit GPR4 was tested by examining the effects of OGM2 on acid-induced serum responsive element (SRE) luciferase activity in HEK293 cells transfected with either GPR4 or GPR68. Mild acidification increased luciferase activity in GPR4 and GPR68 transfected cells above that of vector control.
Cas9^GPR68=GPR68 targeted sgRNA and Cas9; CTL=control; MoGPR68=GPR68 morpholino treatment. […] These cells were exposed to acidic media and assayed for luciferase activity as a readout of the receptor activity.

For the next test, the system named is PC-3. The test is described as follows: Cell Titer-Glo viability, Prostate adenocarcinoma. As to conditions: for CC50: Homo sapiens, read-out: LC50 (the source's name). Type of test: cell-based. The procedure:
(§1) OGM2 kills wide variety of cancer cell types. Cell sensitivity can be classified in to Very Sensitive (LC50<2 μM), Sensitive (LC50=2 to 10 μM), Mildly Sensitive (LC50>10 μM), and Refractory (no killing at 10 μM). The listed established cell were incubated with OGM2 at 2 μM or 10 μM for 72 hours under standard cell culture conditions, and relative cell number was assessed using Cell Titer-Glo Luminescent Cell Viability Assay (Promega™) following the manufacturer's instructions. Luminescence was determined using a Cytation 5 reader and Gen5 software package (BioTek™).
(§2) Cancer cells, which are very sensitive to killing by OGM2 (LCs <2 μM), with reported mRNA expression of GPR68 and the related proton sensing receptor GPR4. LC50's (concentrations causing 50% lethality) were determined using CellTiter-Glo (Promega™, G7570). Cells were plated in 12-well plates (CELLTREAT Scientific Products, 229112) in 1 ml of DMEM with high glucose, GlutaMAX, HEPES, or RPMI 1640 with Penicillin-Streptomycin (ThermoFisher™, 10564029, 11875119 and 15140122) and 10% FBS. Cells were incubated overnight at 37° C. in 5% CO2. Then 1 mL of fresh media was added with DMSO, OGM, or positive control (Erastin; APExBIO Technology, LLC, B1524) and cells incubated for 3 days. On the third day, all media was removed, cells were rinsed with 1×PBS, PBS was removed, and 200 μL of 1× Passive Lysis Buffer (Promega™, E1941) was added to each well. […]. Subsequently, 20 μL of lysate was added to 100 μL CellTiter-Glo™ reagent on a LUMITRAC 200 plate (Greiner™ bio-one, 82050-726). Plates were briefly spun down and read on a GloMax-Multi Detection System (Promega™).
(§3) The cells listed in the tables above were incubated with OGM2 at 2 μM or 10 μM for 72 hours under standard cell culture conditions, and relative cell number was assessed using Cell Titer-Glo Luminescent Cell Viability Assay (Promega™) following the manufacturer's instructions. Luminescence was determined using a Cytation 5 reader and Gen5 software package (BioTek™). RNA expression of GPR68 and GPR4 in the corresponding cancer cell lines are listed, according to the publicly available The Human Protein Atlas version 22.0 and Ensembl version 103.38 (see proteinatlas.org). The consensus normalized expression value (“nTPM”=normalize transcript per million) was calculated as the maximum nTPM value for each gene in the two data sources.
A general note: ATP-based viability assays read luminescence as a measure of living cells.

The subject of another test is DU 145. The test is described as follows: Cell Titer-Glo viability, Prostate adenocarcinoma. The class given is cell-based. The settings on record: for CC50: Homo sapiens, read-out: LC50 (the source's name). The procedure:
as §1, §2, §3

Like-named read-outs stand apart in the source and are kept apart here.

T10 sequence (Q9NS75 whole entry, species assumed): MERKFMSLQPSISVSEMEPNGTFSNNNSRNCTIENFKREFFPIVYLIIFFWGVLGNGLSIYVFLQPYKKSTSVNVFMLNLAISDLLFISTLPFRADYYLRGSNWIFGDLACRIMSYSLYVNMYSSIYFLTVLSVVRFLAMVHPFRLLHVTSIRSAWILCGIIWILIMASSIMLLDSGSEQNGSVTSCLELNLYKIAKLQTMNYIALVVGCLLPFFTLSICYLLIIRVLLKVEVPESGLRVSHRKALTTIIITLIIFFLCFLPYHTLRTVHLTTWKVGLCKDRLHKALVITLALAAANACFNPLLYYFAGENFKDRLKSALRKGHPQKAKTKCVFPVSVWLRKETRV
T9 sequence (P61073 whole entry, species assumed): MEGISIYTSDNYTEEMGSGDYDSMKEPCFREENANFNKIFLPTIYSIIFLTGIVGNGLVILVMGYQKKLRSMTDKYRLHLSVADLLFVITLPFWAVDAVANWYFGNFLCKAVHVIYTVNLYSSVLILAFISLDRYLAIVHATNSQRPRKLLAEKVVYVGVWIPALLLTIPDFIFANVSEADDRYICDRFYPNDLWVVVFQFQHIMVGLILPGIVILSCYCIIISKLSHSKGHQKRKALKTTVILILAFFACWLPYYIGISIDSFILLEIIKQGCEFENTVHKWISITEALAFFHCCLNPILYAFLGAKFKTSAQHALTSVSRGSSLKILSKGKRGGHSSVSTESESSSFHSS
T11 sequence (Q9UHD2 whole entry): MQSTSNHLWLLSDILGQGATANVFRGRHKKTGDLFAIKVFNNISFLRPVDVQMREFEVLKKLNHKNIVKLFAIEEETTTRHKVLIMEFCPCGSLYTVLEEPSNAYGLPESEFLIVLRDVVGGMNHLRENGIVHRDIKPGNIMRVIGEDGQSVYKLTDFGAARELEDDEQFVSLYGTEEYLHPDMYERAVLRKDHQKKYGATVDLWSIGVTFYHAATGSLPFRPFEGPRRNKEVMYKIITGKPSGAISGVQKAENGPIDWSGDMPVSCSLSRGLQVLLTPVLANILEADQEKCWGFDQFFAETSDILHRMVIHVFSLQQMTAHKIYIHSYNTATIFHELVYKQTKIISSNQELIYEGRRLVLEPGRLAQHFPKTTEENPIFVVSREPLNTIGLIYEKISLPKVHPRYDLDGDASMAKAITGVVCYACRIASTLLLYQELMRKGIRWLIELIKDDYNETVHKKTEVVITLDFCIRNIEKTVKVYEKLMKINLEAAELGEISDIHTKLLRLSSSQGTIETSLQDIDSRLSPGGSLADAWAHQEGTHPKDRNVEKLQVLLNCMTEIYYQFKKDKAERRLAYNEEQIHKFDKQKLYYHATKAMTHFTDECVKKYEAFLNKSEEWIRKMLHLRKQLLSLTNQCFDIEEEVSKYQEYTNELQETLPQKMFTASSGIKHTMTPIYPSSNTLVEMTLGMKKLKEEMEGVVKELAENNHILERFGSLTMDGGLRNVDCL
T6 sequence (P00519 242-493 F317L limits assumed): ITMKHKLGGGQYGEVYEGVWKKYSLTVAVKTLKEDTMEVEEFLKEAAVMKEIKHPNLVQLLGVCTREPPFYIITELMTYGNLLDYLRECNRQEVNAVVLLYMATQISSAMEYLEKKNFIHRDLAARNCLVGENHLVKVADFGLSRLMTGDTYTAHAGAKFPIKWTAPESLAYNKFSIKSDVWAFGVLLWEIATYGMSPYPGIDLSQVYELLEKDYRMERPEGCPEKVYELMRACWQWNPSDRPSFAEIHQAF
T7 sequence (Q9UQM7 whole entry): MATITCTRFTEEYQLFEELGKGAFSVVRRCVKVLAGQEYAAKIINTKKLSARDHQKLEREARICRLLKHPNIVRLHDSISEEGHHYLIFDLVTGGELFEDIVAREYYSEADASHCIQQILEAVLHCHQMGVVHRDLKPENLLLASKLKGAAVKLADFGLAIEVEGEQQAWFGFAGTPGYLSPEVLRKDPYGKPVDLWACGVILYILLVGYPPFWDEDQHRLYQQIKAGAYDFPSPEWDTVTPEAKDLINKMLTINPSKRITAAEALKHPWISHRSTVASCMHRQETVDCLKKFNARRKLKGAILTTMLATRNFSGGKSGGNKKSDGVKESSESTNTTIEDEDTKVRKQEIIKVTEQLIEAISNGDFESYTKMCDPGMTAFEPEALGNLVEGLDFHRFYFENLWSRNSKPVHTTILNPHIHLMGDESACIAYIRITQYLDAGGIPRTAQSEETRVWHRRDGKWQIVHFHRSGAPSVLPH
T2 sequence (Q9NRH2 whole entry): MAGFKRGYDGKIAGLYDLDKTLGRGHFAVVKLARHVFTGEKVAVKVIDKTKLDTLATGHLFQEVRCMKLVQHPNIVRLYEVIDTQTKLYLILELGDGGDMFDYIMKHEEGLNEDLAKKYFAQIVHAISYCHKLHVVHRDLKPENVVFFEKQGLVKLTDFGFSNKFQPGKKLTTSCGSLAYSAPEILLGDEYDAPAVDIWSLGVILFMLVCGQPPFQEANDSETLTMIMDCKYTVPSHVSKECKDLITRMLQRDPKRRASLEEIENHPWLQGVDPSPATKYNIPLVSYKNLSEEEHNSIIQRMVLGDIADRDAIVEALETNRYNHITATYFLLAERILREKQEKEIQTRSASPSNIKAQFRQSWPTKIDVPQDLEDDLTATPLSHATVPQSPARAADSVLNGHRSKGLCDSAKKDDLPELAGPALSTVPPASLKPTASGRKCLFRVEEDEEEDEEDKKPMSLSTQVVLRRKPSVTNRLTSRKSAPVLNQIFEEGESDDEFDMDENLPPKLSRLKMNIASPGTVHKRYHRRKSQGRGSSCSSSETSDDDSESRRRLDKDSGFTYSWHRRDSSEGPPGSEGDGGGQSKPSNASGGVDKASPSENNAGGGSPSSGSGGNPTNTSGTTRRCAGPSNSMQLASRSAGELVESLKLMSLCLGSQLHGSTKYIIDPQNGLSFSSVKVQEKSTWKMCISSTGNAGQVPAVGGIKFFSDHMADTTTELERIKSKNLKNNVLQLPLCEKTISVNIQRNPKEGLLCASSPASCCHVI
CSNK1E, sequence (P49674 whole entry): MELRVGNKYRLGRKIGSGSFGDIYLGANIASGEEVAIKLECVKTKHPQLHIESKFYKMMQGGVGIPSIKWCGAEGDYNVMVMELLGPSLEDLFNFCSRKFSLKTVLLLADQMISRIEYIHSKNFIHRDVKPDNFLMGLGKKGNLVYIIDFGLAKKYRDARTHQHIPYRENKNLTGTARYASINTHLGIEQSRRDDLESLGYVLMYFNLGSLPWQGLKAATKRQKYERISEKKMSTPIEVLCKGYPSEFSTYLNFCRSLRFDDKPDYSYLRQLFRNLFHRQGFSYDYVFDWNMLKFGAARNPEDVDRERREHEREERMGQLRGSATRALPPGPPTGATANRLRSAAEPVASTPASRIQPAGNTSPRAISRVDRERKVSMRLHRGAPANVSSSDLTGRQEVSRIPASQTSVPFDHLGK
T3 sequence (O75385 whole entry): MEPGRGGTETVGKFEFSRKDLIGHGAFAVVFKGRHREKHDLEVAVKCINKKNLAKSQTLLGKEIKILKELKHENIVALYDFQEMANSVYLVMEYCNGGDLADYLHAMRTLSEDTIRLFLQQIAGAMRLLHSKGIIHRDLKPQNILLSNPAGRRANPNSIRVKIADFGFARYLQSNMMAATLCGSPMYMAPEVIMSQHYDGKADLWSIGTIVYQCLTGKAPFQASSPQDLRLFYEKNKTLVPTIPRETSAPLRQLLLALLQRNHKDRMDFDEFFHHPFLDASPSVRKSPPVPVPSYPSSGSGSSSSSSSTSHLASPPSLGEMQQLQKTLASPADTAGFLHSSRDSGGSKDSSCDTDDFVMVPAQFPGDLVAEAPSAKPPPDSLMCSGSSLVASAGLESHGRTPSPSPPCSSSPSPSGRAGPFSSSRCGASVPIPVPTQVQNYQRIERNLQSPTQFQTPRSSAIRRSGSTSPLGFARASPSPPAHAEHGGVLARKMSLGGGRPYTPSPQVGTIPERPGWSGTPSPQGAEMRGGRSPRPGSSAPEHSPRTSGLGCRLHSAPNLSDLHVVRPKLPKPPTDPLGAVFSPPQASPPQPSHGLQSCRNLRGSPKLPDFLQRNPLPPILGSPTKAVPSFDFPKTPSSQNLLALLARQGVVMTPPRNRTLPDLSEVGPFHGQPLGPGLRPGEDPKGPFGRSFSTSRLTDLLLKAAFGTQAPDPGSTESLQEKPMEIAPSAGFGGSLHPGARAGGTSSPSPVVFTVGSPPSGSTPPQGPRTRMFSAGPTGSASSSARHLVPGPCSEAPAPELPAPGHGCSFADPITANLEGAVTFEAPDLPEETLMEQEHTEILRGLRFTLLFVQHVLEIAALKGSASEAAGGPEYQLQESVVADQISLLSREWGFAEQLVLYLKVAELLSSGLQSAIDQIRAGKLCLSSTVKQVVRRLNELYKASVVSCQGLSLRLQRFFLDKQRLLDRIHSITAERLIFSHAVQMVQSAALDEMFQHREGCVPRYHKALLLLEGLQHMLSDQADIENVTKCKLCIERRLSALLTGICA
T1 sequence (Q15418 418-675 limits assumed): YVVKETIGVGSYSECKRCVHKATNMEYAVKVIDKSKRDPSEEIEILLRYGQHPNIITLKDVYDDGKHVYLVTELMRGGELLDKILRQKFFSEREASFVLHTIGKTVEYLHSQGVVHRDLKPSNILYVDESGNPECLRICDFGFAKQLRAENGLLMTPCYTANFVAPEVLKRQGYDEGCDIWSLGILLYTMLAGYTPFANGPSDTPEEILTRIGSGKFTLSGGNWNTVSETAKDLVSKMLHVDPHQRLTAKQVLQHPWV

Take `CCc1ccc2c(c1)C1(NN=C(c3cccc4ccccc34)S1)C(=O)N2` (centres unmarked) [OGM1, 5-ethyl-5′-naphthalen-1-ylspiro[1H-indole-3,2′-3H-1,3,4-thiadiazole]-2-one]: the remaining binding at 10 µM in test [1] was 73%; at SNRK, 100%; at ULK1, 100%; on FLT3(R834Q), 100%; on LIMK1, 100%; in test [2] it was 92%. The remaining binding at 10 µM amounted to 91% on CSNK1E, 75% at CAMK2A, 39% on DYRK1A and 90% on TBK1. Further, the Antagonism is −6.9 on CXCR4 (10 uM) and −7.1 on CysLT2 (10 uM). The Agonism at CXCR4 (12.5 uM) is listed as 1.5; at CysLT2 (12.5 uM) it was −0.3.

For `CCc1ccc2c(c1)C1(NN=C(c3ccccc3)S1)C(=O)N2` (centres unmarked) [OGM2], on GPR4, the “acid-induced SRE-luciferase activity” value is listed as “not inhibited”. The Class result in the test on PC-3 was “Mildly”; in the test with PC-3 (Table 13), “Low”. Besides, the “% Survival 2 μM OGM” value in the test on PC-3 (72 hours) is listed as 101.3%; with PC-3 (PC-3 cells, 2 μM, 72 hours, Cell Titer-Glo), 101.3%; in the test with DU 145 (72 hours) it was 44.2%; in the test on DU 145 (DU 145 cells, 2 μM, 72 hours, Cell Titer-Glo) it was 44.2%. In addition, the “% Survival 10 μM OGM” value in the test with PC-3 (72 hours) is recorded as 74.5%; with PC-3 (PC-3 cells, 10 μM, 72 hours, Cell Titer-Glo) it was 74.5%; with DU 145 (72 hours), 22.2%; in the test on DU 145 (DU 145 cells, 10 μM, 72 hours, Cell Titer-Glo), 22.2%. Also, the CC50 in the test on PC-3 (PC-3, 72 hours) is above 10 µM; with PC-3 (PC-3 cells, concentration causing 50% lethality) it was above 10 µM; in the test with DU 145 (DU-145, 72 hours), below 2 µM; in the test on DU 145 (DU 145 cells, concentration causing 50% lethality), below 2 µM.

Source of the values: patent US20240327364A1, “THERAPEUTIC TARGETING OF GPR68 TO INDUCE FERROPTOSIS” (University Of Maryland, Baltimore, priority 2023, published 2024).
